According to PubChem BioAssay AID1963875 (Molecular Pharmacology Branch, DTP, NCI, 2024):

Tested on: KRAS-mutant PDC complex spheroid viability
Assay: Anticancer human tumor 186277-243-T-J2-PDC patient-derived colon adenocarcinoma cell line growth inhibition [KRAS2]
Settings: for viability, T/C: stronger effect = lower value
In short: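 KRAS-mutant tumor cells were grown as spheroids with HUVEC endothelial cells and human MSCs as stroma. Targeted agents were tested alone and with KRAS pathway inhibitors. Doses started at or near clinical Cmax, or 10 microM, descending half-log.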

[1] = curve of first compound, second compound 0.1 µM
[2] = curve of first compound, second compound 0.316 µM
[3] = curve of first compound, second compound 1 µM
[4] = curve of first compound, second compound 3.16 µM
[5] = second compound 0.1 µM, first compound 0.0316 µM
[6] = second compound 0.1 µM, first compound 0.1 µM
[7] = second compound 0.1 µM, first compound 0.316 µM
[8] = second compound 0.1 µM, first compound 1 µM
[9] = second compound 0.1 µM, first compound 3.16 µM
[10] = second compound 0.1 µM, first compound 10 µM
[11] = second compound 0.316 µM, first compound 0.0316 µM
[12] = second compound 0.316 µM, first compound 0.1 µM
[13] = second compound 0.316 µM, first compound 0.316 µM
[14] = second compound 0.316 µM, first compound 1 µM
[15] = second compound 0.316 µM, first compound 3.16 µM
[16] = second compound 0.316 µM, first compound 10 µM
[17] = second compound 1 µM, first compound 0.0316 µM
[18] = second compound 1 µM, first compound 0.1 µM
[19] = second compound 1 µM, first compound 0.316 µM
[20] = second compound 1 µM, first compound 1 µM
[21] = second compound 1 µM, first compound 3.16 µM
[22] = second compound 1 µM, first compound 10 µM
[23] = second compound 3.16 µM, first compound 0.0316 µM
[24] = second compound 3.16 µM, first compound 0.1 µM
[25] = second compound 3.16 µM, first compound 0.316 µM
[26] = second compound 3.16 µM, first compound 1 µM
[27] = second compound 3.16 µM, first compound 3.16 µM
[28] = second compound 3.16 µM, first compound 10 µM
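For viability, T/C in this document: viability read after seven days of compound exposure; 100% = DMSO vehicle-treated spheroids so lower means less viable.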

With `Cn1nccc1Nc1nccc(-c2cc3c(s2)C(C)(C)N(CCN2CCOCC2)C3=O)n1` + CNCc1ccccc1-c1csc(C(C)Nc2nc(C)nc3cc(OC)c(OC)cc23)c1 the IC50 [1] was 293 nM, the IC50 [2] was 304 nM and the IC50 [3] was 205 nM. The IC50 [4] was 91.7 nM, the IC50 (curve of first compound, second compound 10 µM) was under 31.6 nM and the viability, T/C [5] was 99.2%. The viability, T/C [6] was 98.3%, the viability, T/C [7] was 46.1% and the viability, T/C [8] was 13.5%. The viability, T/C [9] was 7.74%, the viability, T/C [10] was 6.21% and the viability, T/C [11] was 94.4%. For the same compound, the viability, T/C [12] was 97.3%, the viability, T/C [13] was 48.2% and the viability, T/C [14] was 9.73%. The viability, T/C [15] was 4.43%, the viability, T/C [16] was 7.35% and the viability, T/C [17] was 92%. It also gave a viability, T/C [18] of 105%, a viability, T/C [19] of 20.6% and a viability, T/C [20] of 4.12%. For the same compound, the viability, T/C [21] was 1.64%, the viability, T/C [22] was 2.61% and the viability, T/C [23] was 81.7%. It also gave a viability, T/C [24] of 47.4%, a viability, T/C [25] of 1.6% and a viability, T/C [26] of 1.86%. For the same compound, the viability, T/C [27] was 0.22%, the viability, T/C [28] was 0.1% and the viability, T/C (second compound 10 µM, first compound 0.0316 µM) was 0.17%. For the same compound, the viability, T/C (second compound 10 µM, first compound 0.1 µM) was 0.15%, the viability, T/C (second compound 10 µM, first compound 0.316 µM) was 0.1% and the viability, T/C (second compound 10 µM, first compound 1 µM) was 0.09%. It also gave a viability, T/C (second compound 10 µM, first compound 3.16 µM) of 0.09% and a viability, T/C (second compound 10 µM, first compound 10 µM) of 0.16%.
`CC(C)NCC(C(=O)N1CCN(c2ncnc3c2C(C)CC3O)CC1)c1ccc(Cl)cc1` (stereo not drawn) + C=CC(=O)N1CCN(c2nc(OCC3CCCN3C)nc3c2CCN(c2cccc4cccc(C)c24)C3)CC1CC#N showed an IC50 (curve of first compound, second compound 0.0316 µM) of 691 nM, an IC50 [1] of 664 nM and an IC50 [2] of 505 nM. For the same compound, the IC50 [3] was 248 nM, the IC50 [4] was under 31.6 nM and the viability, T/C (second compound 0.0316 µM, first compound 0.0316 µM) was 93.5%. It also gave a viability, T/C (second compound 0.0316 µM, first compound 0.1 µM) of 105%, a viability, T/C (second compound 0.0316 µM, first compound 0.316 µM) of 73.5% and a viability, T/C (second compound 0.0316 µM, first compound 1 µM) of 37%. For the same compound, the viability, T/C (second compound 0.0316 µM, first compound 3.16 µM) was 26.5%, the viability, T/C (second compound 0.0316 µM, first compound 10 µM) was 11.2% and the viability, T/C [5] was 113%. It also gave a viability, T/C [6] of 87.8%, a viability, T/C [7] of 72.7% and a viability, T/C [8] of 36.5%. It also gave a viability, T/C [9] of 23.6%, a viability, T/C [10] of 12.3% and a viability, T/C [11] of 108%. For the same compound, the viability, T/C [12] was 96.3%, the viability, T/C [13] was 62.4% and the viability, T/C [14] was 29.9%. The viability, T/C [15] was 19.2%, the viability, T/C [16] was 8.67% and the viability, T/C [17] was 97.8%. For the same compound, the viability, T/C [18] was 104%, the viability, T/C [19] was 36.3% and the viability, T/C [20] was 18.4%. The viability, T/C [21] was 9.11%, the viability, T/C [22] was 4.64% and the viability, T/C [23] was 0.22%. The viability, T/C [24] was 0.21%, the viability, T/C [25] was 0.16% and the viability, T/C [26] was 0.13%. It also gave a viability, T/C [27] of 0.12% and a viability, T/C [28] of 0.21%.
`COc1cc(Nc2ncc3c(n2)-c2ccc(Cl)cc2C(c2c(F)cccc2OC)=NC3)ccc1C(=O)O` was tested, and the viability, T/C (compound 0.0316 µM) was 37.6% [middle of 5 runs], the viability, T/C (compound 0.1 µM) was 34.1% [middle of 5 runs] and the viability, T/C (compound 0.316 µM) was 33.4% [middle of 5 runs]. For the same compound, the viability, T/C (compound 1 µM) was 37% [middle of 5 runs], the viability, T/C (compound 3.16 µM) was 46.8% [middle of 5 runs] and the viability, T/C (compound 10 µM) was 50.4% [middle of 5 runs]. For the same compound, the IC50 (curve of compound) was under 31.6 nM.
For `CC(=O)Nc1cccc(-n2c(=O)n(C3CC3)c(=O)c3c(Nc4ccc(I)cc4F)n(C)c(=O)c(C)c32)c1`, the viability, T/C (compound 0.0001 µM) was 102% [middle of 5 runs], the viability, T/C (compound 0.001 µM) was 21.2% [middle of 5 runs] and the viability, T/C (compound 0.00316 µM) was 9.7% [middle of 5 runs]. The viability, T/C (compound 0.01 µM) was 4.01% [middle of 5 runs], the viability, T/C (compound 0.0316 µM) was 1.43% [middle of 5 runs] and the IC50 (curve of compound) was 0.622 nM [middle of 5 runs].
